Results from patent publication US9902725B2, “Heterocyclic derivatives as RORgamma modulators” (GENFIT, priority 2014, dated 2018).

target: T1, RORγt ligand-binding domain (RORγt-LBD) (Homo sapiens, UniProt P51449); test: Time-resolved FRET (TR-FRET) RORγt coactivator assay; format: biochemical; settings: GST-RORγ-LBD, biotinylated RIP140 peptide, coactivator displacement
T1 construct: 20 nM recombinantly expressed RORγ-LBD fused to GST
T1 sequence (P51449 269-508 limits assumed): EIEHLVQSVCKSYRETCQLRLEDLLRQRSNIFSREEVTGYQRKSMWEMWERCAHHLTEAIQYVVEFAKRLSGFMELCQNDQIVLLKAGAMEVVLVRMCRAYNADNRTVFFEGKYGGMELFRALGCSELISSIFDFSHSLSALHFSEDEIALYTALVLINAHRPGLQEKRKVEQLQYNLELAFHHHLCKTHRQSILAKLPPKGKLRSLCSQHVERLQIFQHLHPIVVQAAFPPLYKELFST
Source text: Time-resolved FRET (TR-FRET) RORγt coactivator assay was used to identify RORγ modulator compounds with ligand-dependent coactivator displacement. The assay uses a d2-labeled anti-GST antibody, synthetic N-terminally biotinylated peptide which is derived from nuclear receptor coactivator protein RIP140, and a RORγt ligand-binding domain (RORγt-LBD) that is tagged with glutathione-S-transferase (GST). The influence of compounds on the RORγ-peptide interaction relies on the binding dependent energy transfer from a donor to an acceptor fluorophore attached to the binding partner of interest. […] For reduction of background from compound fluorescence, TR-FRET method makes use of generic fluorophore labels and time resolved detection.
The assays were done in a final volume of 20 μl in a 384 well plate in a CHAPS buffer (2 mM CHAPS; 1 mM DTT, 2 mM EDTA; 0.1% BSA), containing 20 nM recombinantly expressed RORγ-LBD fused to GST, 30 nM N-terminally biotinylated peptide, 1 nM streptavidin-terbium conjugate and 20 nM d2 labeled-anti-GST. Test compounds were diluted using 10 mM stock solution. The range of the final compound concentrations used in this test was from 0.3 nM to 30 μM (logarithmic scale). DMSO content of the samples was kept at 1%. The assay was equilibrated for 2 hours in the dark at room temperature in 384 well plates (Falcon). The signal was detected by an Ultra384 reader (TECAN). The results were visualized by plotting the ratio between the emitted light at 665 nm and 620 nm. A basal level of RORγ-peptide formation is observed in the absence of added compound. Compounds that promote coactivator displacement induce a concentration-dependent decrease in time-resolved fluorescent signal. Data were collected and analyzed using GraphPad Prism software (GraphPad Software V5.02, San Diego Calif. USA). IC50 in μM and Emax in % were reported for each compound.

Row | SMILES | IC50 [µM]
1 | CCOC(=O)CCc1n[nH]c2ccc(CC(=O)NC(c3ccccc3)c3ccccc3N3CCCCC3)cc12 (stereo not shown) [Cpd. 236, ethyl 3-{5-[({phenyl[2-(piperidin-1-yl)phenyl]methyl}carbamoyl)methyl]-1H-indazol-3-yl}propanoate] | < 1
2 | CC(C)(C)OC(=O)CCc1c[nH]c2ccc(CC(=O)NC(c3ccccc3)c3ccccc3N)cc12 (stereo not shown) [Cpd. 51, tert-butyl 3-[5-({[(2-aminophenyl)(phenyl)methyl]carbamoyl}methyl)-1H-indol-3-yl]propanoate] | 1 to 10
3 | CN(C)c1ccccc1C(NC(=O)Cc1ccc2[nH]cc(CC(=O)O)c2c1)c1ccccc1 (stereo not shown) [compound 71, 2-{5-[({[2-(dimethylamino)phenyl](phenyl)methyl}carbamoyl)methyl]-1H-indol-3-yl}acetic acid] | 1 to 10
4 | Cc1ccc(C(NC(=O)Cc2ccc3[nH]cc(CCC(=O)O)c3c2)c2ccccc2)c(N2CCCCCC2)c1 (stereo not shown) [compound 251, 3-{5-[({[2-(azepan-1-yl)-4-methylphenyl](phenyl)methyl}carbamoyl)methyl]-1H-indol-3-yl}propanoic acid] | < 1
5 | CC(C)(C)OC(=O)CCc1c[nH]c2ccc(CC(=O)NC(c3ccccc3)c3ccccc3N3CC=CCC3)cc12 (stereo not shown) [Cpd. 127, tert-butyl 3-{5-[({phenyl[2-(1,2,3,6-tetrahydropyridin-1-yl)phenyl]methyl}carbamoyl)methyl]-1H-indol-3-yl}propanoate] | 1 to 10
6 | CN(C)Cc1ccccc1C(NC(=O)Cc1ccc2[nH]cc(CCC(=O)OC(C)(C)C)c2c1)c1ccccc1 (stereo not shown) [compound 121, tert-butyl 3-(5-{[({2-[(dimethylamino)methyl]phenyl}(phenyl)methyl)carbamoyl]methyl}-1H-indol-3-yl)propanoate] | 1 to 10
7 | CC(C)(C)OC(=O)CCc1c[nH]c2ccc(CC(=O)NC(c3ccccc3)c3cc(Cl)ccc3N3CCCCC3)cc12 (stereo not shown) [Cpd. 61, tert-butyl 3-{5-[({[5-chloro-2-(piperidin-1-yl)phenyl](phenyl)methyl}carbamoyl)methyl]-1H-indol-3-yl}propanoate] | 1 to 10
8 | CN(C)Cc1ccccc1C(NC(=O)Cc1ccc2[nH]cc(CCC(=O)O)c2c1)c1ccccc1 (stereo not shown) [Cpd. 122, 3-(5-{[({2-[(dimethylamino)methyl]phenyl}(phenyl)methyl)carbamoyl]methyl}-1H-indol-3-yl)propanoic acid] | < 1
9 | CN(C)c1ccccc1C(NC(=O)Cc1ccc2[nH]cc(CCC(=O)O)c2c1)c1ccccc1 (stereo not shown) [compound 54, 3-{5-[({[2-(dimethylamino)phenyl](phenyl)methyl}carbamoyl)methyl]-1H-indol-3-yl}propanoic acid] | < 1
10 | CNc1cc(C)ccc1C(NC(=O)Cc1ccc2[nH]cc(CCC(=O)O)c2c1)c1ccccc1 (stereo not shown) [compound 204, 3-{5-[({[4-methyl-2-(methylamino)phenyl](phenyl)methyl}carbamoyl)methyl]-1H-indol-3-yl}propanoic acid] | < 1
11 | Cc1cc(C(NC(=O)Cc2ccc3[nH]cc(CCC(=O)OC(C)(C)C)c3c2)c2ccccc2N2CCCCC2)oc1C (stereo not shown) [Cpd. 252, tert-butyl 3-[5-({[(4,5-dimethylfuran-2-yl)[2-(piperidin-1-yl)phenyl]methyl]carbamoyl}methyl)-1H-indol-3-yl]propanoate] | 1 to 10
12 | CC(C)(C)OC(=O)CCc1c[nH]c2ccc(CC(=O)NC(c3ccccc3)c3ccc(F)cc3N3CCCC3)cc12 (stereo not shown) [Cpd. 92, tert-butyl 3-{5-[({[4-fluoro-2-(pyrrolidin-1-yl)phenyl](phenyl)methyl}carbamoyl)methyl]-1H-indol-3-yl}propanoate] | 1 to 10
13 | COC(=O)Cc1c[nH]c2ccc(CC(=O)NC(c3ccccc3)c3ccccc3N(C)C)cc12 (stereo not shown) [Cpd. 70, methyl 2-{5-[({[2-(dimethylamino)phenyl](phenyl)methyl}carbamoyl)methyl]-1H-indol-3-yl}acetate] | < 1
14 | Cc1ccc(C(NC(=O)Cc2ccc3[nH]cc(CCC(=O)OC(C)(C)C)c3c2)c2ncccn2)c(N2CCCCC2)c1 (stereo not shown) [Cpd. 131, tert-butyl 3-{5-[({[4-methyl-2-(piperidin-1-yl)phenyl](pyrimidin-2-yl)methyl}carbamoyl)methyl]-1H-indol-3-yl}propanoate] | < 1
15 | NC(=O)c1ccc(C(NC(=O)Cc2ccc3[nH]cc(CCC(=O)O)c3c2)c2ccccc2)c(N2CCCC2)c1 (stereo not shown) [compound 63, 3-{5-[({[4-carbamoyl-2-(pyrrolidin-1-yl)phenyl](phenyl)methyl}carbamoyl)methyl]-1H-indol-3-yl}propanoic acid] | 1 to 10
16 | Cc1cccc(C(NC(=O)Cc2ccc3[nH]cc(CCC(=O)OC(C)(C)C)c3c2)c2ccccc2N2CCCCC2)c1 (stereo not shown) [Cpd. 157, tert-butyl 3-[5-({[(3-methylphenyl)[2-(piperidin-1-yl)phenyl]methyl]carbamoyl}methyl)-1H-indol-3-yl]propanoate] | < 1
17 | Cc1cc(Cl)ccc1C(NC(=O)Cc1ccc2[nH]cc(CCC(=O)OC(C)(C)C)c2c1)c1ccccc1 (stereo not shown) [Cpd. 34, tert-butyl 3-[5-({[(4-chloro-2-methylphenyl)(phenyl)methyl]carbamoyl}methyl)-1H-indol-3-yl]propanoate] | 1 to 10
18 | CCOC(=O)CCCC(=O)c1c[nH]c2ccc(CC(=O)NC(c3ccccc3)c3ccccc3N3CCCCC3)cc12 (stereo not shown) [Cpd. 214, ethyl 5-oxo-5-{5-[({phenyl[2-(piperidin-1-yl)phenyl]methyl}carbamoyl)methyl]-1H-indol-3-yl}pentanoate] | 1 to 10
19 | Cc1ccc(C(NC(=O)Cc2ccc3[nH]cc(CCC(=O)O)c3c2)c2ccc(C)s2)c(C)c1 (stereo not shown) [compound 101, 3-[5-({[(2,4-dimethylphenyl)(5-methylthiophen-2-yl)methyl]carbamoyl}methyl)-1H-indol-3-yl]propanoic acid] | < 1
20 | CC(C)(C)OC(=O)CCc1c[nH]c2ccc(CC(=O)NC(c3ccccc3)c3cc(Br)ccc3N3CCCC3)cc12 (stereo not shown) [Cpd. 116, tert-butyl 3-{5-[({[5-bromo-2-(pyrrolidin-1-yl)phenyl](phenyl)methyl}carbamoyl)methyl]-1H-indol-3-yl}propanoate] | 1 to 10
21 | Cc1ccc(C(NC(=O)Cc2ccc3[nH]cc(CCC(=O)OC(C)(C)C)c3c2)c2ccc(C)s2)c(N2CCCCC2)c1 (stereo not shown) [Cpd. 137, tert-butyl 3-{5-[({[4-methyl-2-(piperidin-1-yl)phenyl](5-methylthiophen-2-yl)methyl}carbamoyl)methyl]-1H-indol-3-yl}propanoate] | 1 to 10
22 | COC(=O)Cc1c[nH]c2ccc(CC(=O)NC(c3ccccc3)c3ccccc3N3CCOCC3)cc12 (stereo not shown) [Cpd. 224, methyl 2-{5-[({[2-(morpholin-4-yl)phenyl](phenyl)methyl}carbamoyl)methyl]-1H-indol-3-yl}acetate] | < 1
23 | CC(C)CCC(NC(=O)Cc1ccc2[nH]cc(CCC(=O)O)c2c1)c1ccccc1N1CCCCC1 (stereo not shown) [compound 245, 3-{5-[({4-methyl-1-[2-(piperidin-1-yl)phenyl]pentyl}carbamoyl)methyl]-1H-indol-3-yl}propanoic acid] | < 1
24 | CCOc1ccc(C(NC(=O)Cc2ccc3[nH]cc(CCC(=O)OC(C)(C)C)c3c2)c2ccccc2)c(OCC)c1 (stereo not shown) [Cpd. 246, tert-butyl 3-[5-({[(2,4-diethoxyphenyl)(phenyl)methyl]carbamoyl}methyl)-1H-indol-3-yl]propanoate] | < 1
25 | Cc1ccc(C(NC(=O)Cc2ccc3[nH]cc(CCC(=O)OC(C)(C)C)c3c2)c2ccccc2)c(N2CCCCCC2)c1 (stereo not shown) [Cpd. 250, tert-butyl 3-{5-[({[2-(azepan-1-yl)-4-methylphenyl](phenyl)methyl}carbamoyl)methyl]-1H-indol-3-yl}propanoate] | < 1
26 | CC(C)CC(NC(=O)Cc1ccc2[nH]cc(CC(=O)O)c2c1)c1ccccc1N1CCCCC1 (stereo not shown) [compound 194, 2-{5-[({3-methyl-1-[2-(piperidin-1-yl)phenyl]butyl}carbamoyl)methyl]-1H-indol-3-yl}acetic acid] | 1 to 10
27 | O=C(O)CCc1c[nH]c2ccc(CC(=O)NC(c3ccccc3)c3ccccc3N3CC=CCC3)cc12 (stereo not shown) [compound 128, 3-{5-[({phenyl[2-(1,2,3,6-tetrahydropyridin-1-yl)phenyl]methyl}carbamoyl)methyl]-1H-indol-3-yl}propanoic acid] | < 1
28 | O=C(O)Cc1c[nH]c2ccc(CC(=O)NC(c3ccccc3)c3ccccc3N3CCCC3)cc12 (stereo not shown) [compound 73, 2-{5-[({phenyl[2-(pyrrolidin-1-yl)phenyl]methyl}carbamoyl)methyl]-1H-indol-3-yl}acetic acid] | 1 to 10
